# Where two headings read alike, the source gives them in different places.
# Legend:
# [1] = cited from earlier work
# [2] = at 3 hours; 0.5 mg/mL
# Method: Approximately 1 mL of bupivacaine solution (0.5 mg/mL in water) or bupivacaine nanoemulsion (0.5 mg/mL in nS100) were added to the donor chamber. At each time point, 70 μL was removed from the receiver chamber and replaced with an equivalent volume of fresh PBS to maintain constant volume. The aliquot from each time point was analyzed by HPLC to determine amount of drug permeating through the membrane over time. The HPLC system consisted of an LC-20AD pump, SIL-20AC HT autosampler, CTO-20A column oven, and SPD-20A UV/vis detector (Shimadzu Scientific Instruments, Inc.). HPLC conditions were: 30 μL injection volume, isocratic elution of mobile phase consisting of 75% methanol and 25% 10 mM sodium phosphate buffer (pH 7.8), flow rate of 1.000 mL/min, column temperature of 40° C., and detection at 263 nm.
# [3] = over 7 hours; 1 mg/mL, pH 5-6
# Method: At each time point, 80 μL was removed from the receiver chamber and replaced with an equivalent volume of fresh PBS to maintain constant volume. The aliquot from each time point was analyzed by HPLC to determine amount of drug permeating through the membrane over time. The HPLC system consisted of an LC-20AD pump, SIL-20AC HT autosampler, CTO-20A column oven, and SPD-20A UV/vis detector (Shimadzu Scientific Instruments, Inc.). HPLC conditions were: 30 μL injection volume, isocratic elution of mobile phase consisting of 50% methanol and 50% phosphoric acid (0.1%), flow rate of 1.000 mL/min, column temperature of 40° C., and detection at 275 nm.
# [4] = over 24 hours; 10 mg/mL
# Method: Sesame EMO nanoemulsion (nS50) was prepared from a combination of sesame EMO and FFA oil. Sesame EMO (0.852 g) and sesame FFA (0.648 g) were weighed into a 50 mL metal beaker and heated to 60° C. A coarse emulsion was prepared by adding 13.5 mL water (pre-heated to 60° C.) to the oil. The mixture was subjected to high-sheer homogenizer for 30 seconds, resulting in a milky coarse emulsion. The coarse emulsion was then transferred to QSonica Q700CA sonicator with ½ inch probe. The emulsion was processed for 2 cycles (5 minutes sonication/2 minutes cooling) at 90% power. […] At each time point, 70 μL was removed from the receiver chamber and replaced with an equivalent volume of fresh PBS to maintain constant volume. The aliquot from each time point was analyzed by HPLC to determine amount of drug permeating through the membrane over time. The HPLC system consisted of an LC-20AD pump, SIL-20AC HT autosampler, CTO-20A column oven, and SPD-20A UV/vis detector (Shimadzu Scientific Instruments, Inc.). HPLC conditions were: 30 μL injection volume, isocratic elution of mobile phase consisting of 60% methanol and 40% phosphoric acid (0.1%), flow rate of 1.000 mL/min, column temperature of 40° C., and detection at 210 nm.
# [5] = 10 mg/mL
# Method: Sesame EMO nanoemulsion (nS50) was prepared from a combination of sesame EMO and FFA oil. Sesame EMO (0.852 g) and sesame FFA (0.648 g) were weighed into a 50 mL metal beaker and heated to 60° C. A coarse emulsion was prepared by adding 13.5 mL water (pre-heated to 60° C.) to the oil. The mixture was subjected to high-sheer homogenizer for 30 seconds, resulting in a milky coarse emulsion. The coarse emulsion was then transferred to QSonica Q700CA sonicator with ½ inch probe. The emulsion was processed for 2 cycles (5 minutes sonication/2 minutes cooling) at 90% power. Approximately 1 mL of trifluoroacetyl tripeptide-2 (Cayman Chemical Company) solution (10 mg/mL in 10% DMSO in water) or trifluoroacetyl tripeptide-2 nanoemulsion (10 mg/mL in 10% DMSO in nS50) were added to the donor chamber. At each time point, 70 μL was removed from the receiver chamber and replaced with an equivalent volume of fresh PBS to maintain constant volume. The aliquot from each time point was analyzed by HPLC to determine amount of drug permeating through the membrane over time.
compound,measurement,setting,value
"C=C(C)[C@@H]1CCC(C)=C[C@H]1c1c(O)cc(CCCCC)cc1O [CBD, cannabidiol]",solubility in water,[1],essentially insoluble in water
"CCCCN1CCCCC1C(=O)Nc1c(C)cccc1C (stereo not drawn) [free drug control (bupivacaine), bupivacaine]",bupivacaine permeation,[2],undetectable permeation
"O=C(O)c1ccccc1O [free drug control (salicylic acid), salicylic acid]",salicylic acid permeation,[3],no salicylic acid permeation
hexapeptide-11 [free peptide control (hexapeptide-11)],hexapeptide-11 permeation,[4],no peptide permeation
trifluoroacetyl tripeptide-2,trifluoroacetyl tripeptide-2 permeation,[5]; after 24 hours,1.1 ug/cm^2
same,trifluoroacetyl tripeptide-2 permeation,[5]; at 6 hours,no peptide permeation

# From patent US20240050422A1, “DRUG DELIVERY VIA MONOACYLGLYCEROL AND FREE FATTY ACID-BASED COMPOSITIONS” (GLYCOSBIO, INC., priority 2021, published 2024)
